Laboratory results taken from PMC11259170, “Small-molecule probe for IBD risk variant GPR65 I231L alters cytokine signaling networks through positive allosteric modulation” (Science Advances, 2024).
Read-outs that look alike come from different tables or passages of the source.

Columns and labels:
Assay type in all cases: cell-based
hGPR65 = target: T1, hGPR65 (Homo sapiens, UniProt Q8IYL9); experiment: cAMP detection in HeLa expression cell line, hGPR65; conditions: for Emax: HeLa, relative to 100uM forskolin (100%) and DMSO (0%), read-out: hGPR Max Activity %
T1 construct: expressed in transfected cells; host or cells: HeLa (ATCC CCL-2), lentiviral transduction, pLX317
How it was run: (§1)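 HeLa cells stably expressing C-terminally V5-tagged receptor or GFP (lentiviral, puromycin 3 μg/ml) stimulated at 1500 cells per well for 30 min at RT with compound (10 mM DMSO stock) in stimulation buffer at pH 7.2. cAMP detected by Lance Ultra TR-FRET after lysis and 1 h detection, excitation 337 nm, emission 620/665 nm.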

hGPR4-SmBiT = target: T2, hGPR4-SmBiT (Homo sapiens, UniProt P46093); experiment: Nano-BiT target engagement, LgBiT-mGs recruitment to hGPR4-SmBiT; conditions: 10 μM
T2 construct: expressed in transfected cells; host or cells: Expi293F (Gibco), transient transfection
Protocol: (§2) Target engagement was measured in Expi293F (Gibco, 100044202) cells using the Nano-Glo Live Cell Assay System (Promega, N2011). Nano-BiT plasmids were cloned from GPR65-, GPR4-, and GPR68-Tango plasmids. GPR65-Tango (Addgene plasmid # 66370; http://n2t.net/addgene:66370; RRID:Addgene_66370), GPR4-Tango (Addgene plasmid # 66358; http://n2t.net/addgene:66358; RRID:Addgene_66358), and GPR68-Tango (Addgene plasmid # 66371; http://n2t.net/addgene:66371; RRID:Addgene_66371) were gifts from Bryan Roth. Expi293F cells were transfected 1 day before kinetics with 500 ng of each plasmid using ExpiFectamine 293 Transfection Kit (Gibco, A14525). After 24 hours, cells were collected, washed, and resuspended in room temperature 0.1% PBS-BSA, adjusted to pH 7.4 using 1 M NaOH. Cells were transferred to white opaque 96-well microplates (100 μl per well, PerkinElmer, 6005290), followed by addition of the Nano-Glo Live Cell Reagent (25 μl per well). Baseline luminescence was measured for 10 cycles (1 cycle = 90 s) before adding compounds. All luminescence measurements were made on BMG Labtech PHERAstar FSX. Data analysis was performed using GraphPad Prism.

mGPR65-SmBiT = target: T3, mGPR65-SmBiT (Mus musculus, UniProt Q61038); experiment: Nano-BiT target engagement, LgBiT-mGs recruitment to mGPR65-SmBiT; conditions: 10 μM
T3 construct: expressed in transfected cells; host or cells: Expi293F (Gibco), transient transfection
Protocol: as §2

hGPR65-SmBiT = target: T4, hGPR65-SmBiT (Homo sapiens, UniProt Q8IYL9); experiment: Nano-BiT target engagement, LgBiT-mGs recruitment to hGPR65-SmBiT in Expi293F cells
T4 construct: expressed in transfected cells; host or cells: Expi293F (Gibco), transient transfection
Protocol: as §2

mGPR65 = target: T5, mGPR65 (Mus musculus, UniProt Q61038); experiment: cAMP detection in HeLa expression cell line, mGPR65; conditions: for Emax: HeLa, relative to 100uM forskolin (100%) and DMSO (0%), read-out: mGPR Max Activity %
T5 construct: expressed in transfected cells; host or cells: HeLa (ATCC CCL-2), lentiviral transduction, pLX317
How it was run: as §1

[1] = test system: GPR65 WT mouse splenocytes; experiment: cAMP detection in GPR65 WT mouse splenocytes; conditions: 0 to 50 μM, pH 7.2, GPR65-dependent
Protocol: cAMP was measured in cells using the Lance Ultra cAMP Kit. Spleens were harvested from GPR65 WT and GPR65 KO mice, homogenized and passed through a 70-μm cell strainer into harvest buffer [PBS, 0.5% bovine serum albumin (BSA), and 2 mM EDTA]. Cells were then centrifuged, washed with harvest buffer, and resuspended in red blood cell lysis buffer for 10 min at RT. Cells were counted and resuspended in assay buffer (25-ml DMEM, 0.5-ml 7.5% sodium bicarbonate, and 333-μl 7.5% BSA stabilizer) and adjusted to pH 7.2 with 1 M NaOH. Splenocytes were added to a white opaque OptiPlate 384-well microplates at a density of 100,000 cells per well in 20 μl. Compounds were added into the wells using a pin transfer tool, and plates were incubated at 37°C, 5% CO2 for 40 min. Each detection reagent (5 μl) was added to the plate and incubated at RT in the dark for 1 hour. Eu-cAMP tracer and FRET emissions were read using a PerkinElmer EnVision Multimode plate reader (ENVISION21040010). Data analysis was performed using GraphPad Prism.

[2] = 1st hGPR column pair, NA = no activity
[3] = 2nd hGPR column pair, NA = no activity
[4] = 2nd mGPR column pair, NA = no activity

T5 sequence (Q61038 whole entry): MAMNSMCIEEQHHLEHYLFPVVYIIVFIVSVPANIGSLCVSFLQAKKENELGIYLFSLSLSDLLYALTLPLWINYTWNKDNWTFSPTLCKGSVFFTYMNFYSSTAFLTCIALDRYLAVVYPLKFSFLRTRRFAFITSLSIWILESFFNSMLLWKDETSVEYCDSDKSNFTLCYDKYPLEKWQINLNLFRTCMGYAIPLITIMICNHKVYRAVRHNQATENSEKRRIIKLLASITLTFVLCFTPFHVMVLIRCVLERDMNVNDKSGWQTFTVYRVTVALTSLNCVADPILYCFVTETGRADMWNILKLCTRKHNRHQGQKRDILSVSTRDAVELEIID
T3 sequence (Q61038 whole entry): as above
T1 sequence (Q8IYL9 whole entry): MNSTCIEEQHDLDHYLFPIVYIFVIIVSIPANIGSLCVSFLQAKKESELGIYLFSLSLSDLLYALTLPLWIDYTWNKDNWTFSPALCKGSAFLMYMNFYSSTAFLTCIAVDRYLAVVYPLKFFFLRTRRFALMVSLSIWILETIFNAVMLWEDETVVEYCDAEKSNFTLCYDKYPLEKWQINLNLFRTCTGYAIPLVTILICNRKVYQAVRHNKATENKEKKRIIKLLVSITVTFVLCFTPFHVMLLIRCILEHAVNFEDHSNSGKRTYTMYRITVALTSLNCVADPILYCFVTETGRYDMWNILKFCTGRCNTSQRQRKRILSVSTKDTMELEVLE
T4 sequence (Q8IYL9 whole entry): as above
T2 sequence (P46093 whole entry): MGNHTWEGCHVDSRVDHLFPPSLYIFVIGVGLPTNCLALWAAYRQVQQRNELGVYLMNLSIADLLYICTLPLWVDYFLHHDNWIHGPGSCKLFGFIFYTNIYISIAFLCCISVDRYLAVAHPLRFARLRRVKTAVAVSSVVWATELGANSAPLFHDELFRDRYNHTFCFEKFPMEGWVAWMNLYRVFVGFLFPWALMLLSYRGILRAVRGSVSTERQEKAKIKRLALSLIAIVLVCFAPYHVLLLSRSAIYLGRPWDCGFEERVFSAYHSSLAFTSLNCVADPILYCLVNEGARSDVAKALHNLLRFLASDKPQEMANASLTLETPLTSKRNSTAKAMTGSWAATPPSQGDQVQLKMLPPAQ

Question: What does the source list for Cc1ccc(NC(=O)c2cnn3c(O)cc(-c4ccc(COC(C)C)cc4)nc23)nc1 [BRD5075, O=C(NC1=NC=C(C)C=C1)C2=C3N(N=C2)C(O)=CC(C4=CC=C(COC(C)C)C=C4)=N3]?
Answer: mode of action from pH-dependent cAMP production (hGPR65; 0 to 50 μM, pH range of 6.6 to 7.6): PAMs; activity for hGPR65 among prioritized molecules (hGPR65; 1.56 μM, pH 7.2): highest activity; Emax (hGPR65; [2]): 80.3%; Emax (hGPR65; [3]): 78.6%; EC50 (hGPR65; hGPR EC50 (uM), NA = no activity): 0.377 µM; EC50 (hGPR65; hGPR EC50 (uM), pH 7.2, 30 min): 1.2 µM; EC50 (hGPR65; hGPR EC50, NA = no activity): 1.1 µM; EC50 (hGPR65; hGPR EC50, pH 7.2, 30 min): 0.699 µM; cAMP activity, hGPR65 (hGPR65; pH 7.2): at least 40%; response in cells expressing hGPR4-SmBiT (hGPR4-SmBiT): failing to elicit responses; mGs recruitment / engagement of mGPR65 (mGPR65-SmBiT): showed engagement; activity after HCl versus water, mGPR65 (mGPR65-SmBiT; HCl or H2O at cycle 10): showed activity when preceded by the addition of HCl but not water; effect of concentration on mGs recruitment (hGPR65-SmBiT; 0-50 μM): dose-dependent effect; mGs recruitment / engagement of hGPR65 (hGPR65-SmBiT; 10 μM): showed engagement; activity after HCl versus water, hGPR65 (hGPR65-SmBiT; 10 μM, HCl or H2O at cycle 10): showed activity when preceded by the addition of HCl but not water; activity for mGPR65 among prioritized molecules (mGPR65; 1.56 μM, pH 7.2): highest activity; cAMP response against mGPR65 among prioritized compounds (mGPR65; HeLa cells): highest cAMP response; Emax (mGPR65; [4]): 69.6%; Emax (mGPR65; NA = no activity): 70.8%; EC50 (mGPR65; mGPR EC50 (uM), 2nd mGPR column pair, NA = no activity): 0.952 µM; EC50 (mGPR65; mGPR EC50 (uM), first pair of columns, pH 7.2, 30 min): 1.04 µM; EC50 (mGPR65; mGPR EC50 (uM), second pair of columns, pH 7.2, 30 min): 0.997 µM; EC50 (mGPR65; mGPR EC50 (uM), NA = no activity): 0.892 µM; cAMP activity, mGPR65 (mGPR65; pH 7.2): at least 40%

Question: Which EC50 (hGPR65; 1st hGPR column pair, NA = no activity, read-out: hGPR EC50) does the source give for CN1N=C(SCc2ccc(Cl)cc2Cl)Sc2c1cnn(C)c2=O [BTB09089, reference compound] here?
Answer: The EC50 was 6.35 µM.

Question: What about the EC50 (hGPR65; 2nd hGPR column pair, NA = no activity, read-out: hGPR EC50) of the same compound?
Answer: Its EC50 is 1.37 µM.

Question: What about the Emax (hGPR65; [2]) of the same compound?
Answer: The Emax was 53.5%.

Question: What about the Emax (hGPR65; [3]) of the same compound?
Answer: The Emax was 31.1%.

Question: What about the “mGs recruitment / engagement of mGPR65” value (mGPR65-SmBiT) of the same compound?
Answer: Its value is “increases in luminescence independent of pH changes”.

Question: What about the “mGs recruitment / engagement of hGPR65” value (hGPR65-SmBiT; 10 μM) of the same compound?
Answer: The value was “limited activity toward hGPR65”.

Question: And the “cAMP production in mouse splenocytes, compared” value [1]?
Answer: The value was “induced higher cAMP production than BRD2813”.

Question: And the EC50 (mGPR65; 2nd mGPR column pair, NA = no activity, read-out: mGPR EC50)?
Answer: Its EC50 is 0.458 µM.

Question: What about the Emax (mGPR65; [4]) of the same compound?
Answer: Its Emax is 76.4%.

Question: And the Emax (mGPR65; NA = no activity)?
Answer: The Emax was 82.8%.
